Reference: patent USRE47193E1, “Selectively substituted quinoline compounds” (EISAI R&D MANAGEMENT CO., LTD., priority 2013, dated 2019)
Where two headings read alike, the source gives them in different places.

Tests used:
mouse TLR7 = target: T1, mouse TLR7 (Mus musculus, UniProt P58681); test: Short-term in vivo (STIV) assay: oral dosing, R848 s.c., plasma IL-6; design: female BALB/c mice (Jackson Labs, Bar Harbor, Me.) were dosed by oral gavage; tissue Jackson Labs; host or cells: living female BALB/c mice; plasma IL-6 after s.c. R848
T1 sequence (P58681 27-1050): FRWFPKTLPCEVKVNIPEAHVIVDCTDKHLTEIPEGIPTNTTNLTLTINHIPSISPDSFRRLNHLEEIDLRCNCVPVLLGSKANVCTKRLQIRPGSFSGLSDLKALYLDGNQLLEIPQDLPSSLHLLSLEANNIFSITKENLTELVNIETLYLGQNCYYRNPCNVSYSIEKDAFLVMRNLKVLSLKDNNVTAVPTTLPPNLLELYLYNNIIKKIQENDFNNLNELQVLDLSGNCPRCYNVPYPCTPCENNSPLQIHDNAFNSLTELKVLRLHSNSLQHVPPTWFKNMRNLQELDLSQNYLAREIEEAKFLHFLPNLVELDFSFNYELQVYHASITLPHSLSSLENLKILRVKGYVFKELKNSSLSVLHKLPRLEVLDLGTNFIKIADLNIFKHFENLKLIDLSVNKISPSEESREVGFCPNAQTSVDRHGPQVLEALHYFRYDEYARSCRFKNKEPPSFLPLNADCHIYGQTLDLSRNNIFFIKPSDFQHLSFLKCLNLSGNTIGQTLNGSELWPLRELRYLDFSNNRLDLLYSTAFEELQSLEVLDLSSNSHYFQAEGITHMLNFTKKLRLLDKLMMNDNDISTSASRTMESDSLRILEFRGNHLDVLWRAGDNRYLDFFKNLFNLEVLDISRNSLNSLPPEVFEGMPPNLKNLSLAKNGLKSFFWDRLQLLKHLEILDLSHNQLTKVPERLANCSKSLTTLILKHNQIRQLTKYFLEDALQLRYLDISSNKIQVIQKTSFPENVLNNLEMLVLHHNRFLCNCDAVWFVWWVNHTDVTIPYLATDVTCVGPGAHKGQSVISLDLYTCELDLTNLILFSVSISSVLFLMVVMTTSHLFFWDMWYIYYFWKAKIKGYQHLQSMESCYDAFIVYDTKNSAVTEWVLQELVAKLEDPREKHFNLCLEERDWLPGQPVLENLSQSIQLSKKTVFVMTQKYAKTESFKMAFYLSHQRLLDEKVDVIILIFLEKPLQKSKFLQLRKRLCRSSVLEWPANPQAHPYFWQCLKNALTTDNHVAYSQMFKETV
Protocol: Figure Legend: Female BALB/c mice were dosed by oral gavage with Vehicle alone (0.5% aqueous methyl-cellulose) or compound formulated in Vehicle at 33 mg/kg, 100 mg/kg or 300 mg/kg. […] (FIG. 1A).
Short-term in vivo (STIV) assay: To assess compound potency in vivo against mouse TLR7, a short-term in vivo (STIV) assay was utilized. Briefly, mice were orally dosed with compounds and at various time points afterwards were injected subcutaneously with agonist R848 to stimulate TLR7. The plasma IL-6 level following R848 stimulation was then measured by ELISA to assess compound potency and duration-of-action.
Short-term in vivo (STIV) assay. Six to eight week old female BALB/c mice (Jackson Labs, Bar Harbor, Me.) were dosed by oral gavage in 200 ul volume with antagonist compounds formulated in 0.5% aqueous methyl-cellulose (Sigma, St. Louis, Mo.). At various time points afterwards, mice were injected subcutaneously (s.c.) in 100 ul volume with 15 ug R848 (Resiquimod; GLSynthesis, Worcester, Mass.) to stimulate TLR7.

Human TLR7/8 = test: Human PBMC cell-based assay, TLR7/8 stimulus (RNA-Ig), cytokine ELISA
How it was run: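 The agonist was RNA-Ig, a U1 snRNA-derived 26-mer RNA (2.5 μM) complexed with RNA-cross-reacting anti-ssDNA mAb (1:25 or 1 ug/ml), added after 30 min compound pre-incubation (0.1% DMSO). Density-gradient PBMC from healthy donors, 2×10^5/well, were stimulated 20 h at 37 °C; cytokines quantified by ELISA.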

[1] = primary human PBMC assay, TLR7/8 potency; ligand not given; read-out: Human PBMCs IC50

Row | SMILES | % Suppression vs. Vehicle (mouse TLR7; 6 h, 33 mg/kg) [%] | % Suppression vs. Vehicle (mouse TLR7; 6 h, 100 mg/kg) [%] | IC50 (Human TLR7/8; [1]) [nM] | % Suppression vs. Vehicle (mouse TLR7; 13 h, 33 mg/kg) [%] | % Suppression vs. Vehicle (mouse TLR7; 13 h, 100 mg/kg) [%] | % Suppression vs. Vehicle (mouse TLR7; 13 h, 300 mg/kg) [%] | % Suppression vs. Vehicle (mouse TLR7; 24 h, 33 mg/kg) [%] | % Suppression vs. Vehicle (mouse TLR7; 24 h, 100 mg/kg) [%] | % Suppression vs. Vehicle (mouse TLR7; 24 h, 300 mg/kg) [%] | other results
1 | CC1CN(c2ccc(C#N)c3ncccc23)CC(CN2CCNC(C)C2C)O1 (stereo not shown) [ER-887137] | 99 | 100 | 2 | – | – | – | – | – | – | % Suppression vs. Vehicle (mouse TLR7; 3 h, 33 mg/kg): 100%; % Suppression vs. Vehicle (mouse TLR7; 3 h, 100 mg/kg): 100%; % Suppression vs. Vehicle (mouse TLR7; 3 h, 300 mg/kg): 100%; % Suppression vs. Vehicle (mouse TLR7; 6 h, 300 mg/kg): 100%; % Suppression vs. Vehicle (mouse TLR7; 19 h, 33 mg/kg): 38%; % Suppression vs. Vehicle (mouse TLR7; 19 h, 100 mg/kg): 63%; % Suppression vs. Vehicle (mouse TLR7; 19 h, 300 mg/kg): 100%
2 | C[C@@H]1CN(c2ccc(C#N)c3ncccc23)C[C@H](CN2CCN[C@@H](C)C2)O1 [ER-887270] | 98 | – | 1 | 37 | 81 | 99 | 25 | 26 | 100 | –
3 | Cc1cc(CO)cc(-c2ccc(C#N)c3ncccc23)c1 [ER-888201] | 35 | 50 | 4 | – | – | – | – | – | – | % Suppression vs. Vehicle (mouse TLR7; 6 h, 300 mg/kg): 40%; % Suppression vs. Vehicle (mouse TLR7; 19 h, 33 mg/kg): 45%; % Suppression vs. Vehicle (mouse TLR7; 19 h, 100 mg/kg): 71%; % Suppression vs. Vehicle (mouse TLR7; 19 h, 300 mg/kg): 79%
4 | CC1CN(c2ccc(C#N)c3ncccc23)CC(CN2CCC(NC(=O)c3ccccc3)CC2)O1 (stereo not shown) [ER-888321] | 86 | 100 | 22 | 87 | 100 | – | – | – | – | % Suppression vs. Vehicle (mouse TLR7; 3 h, 33 mg/kg): 98%; % Suppression vs. Vehicle (mouse TLR7; 3 h, 100 mg/kg): 100%; % Suppression vs. Vehicle (mouse TLR7; 19 h, 33 mg/kg): 59%; % Suppression vs. Vehicle (mouse TLR7; 19 h, 100 mg/kg): 59%
5 | CC(C)N1CCN(C[C@H]2CN(c3ccc(C#N)c4ncccc34)C[C@@H](C)O2)CC1 [ER-888322] | 99 | 100 | 18 | – | – | – | – | – | – | % Suppression vs. Vehicle (mouse TLR7; 6 h, 300 mg/kg): 100%; % Suppression vs. Vehicle (mouse TLR7; 19 h, 33 mg/kg): 24%; % Suppression vs. Vehicle (mouse TLR7; 19 h, 100 mg/kg): 82%; % Suppression vs. Vehicle (mouse TLR7; 19 h, 300 mg/kg): 100%
6 | C[C@@H]1CN(c2ccc(C#N)c3ncccc23)C[C@H](CN2CCN(C)[C@H](C)C2)O1 [ER-890346] | – | – | 6 | – | – | – | – | – | – | % Suppression vs. Vehicle (mouse TLR7; 3 h, 33 mg/kg): 99%; % Suppression vs. Vehicle (mouse TLR7; 19 h, 11 mg/kg): 0%; % Suppression vs. Vehicle (mouse TLR7; 19 h, 33 mg/kg): 20%
7 | CC[C@H]1CN(C[C@H]2CN(c3ccc(C#N)c4ncccc34)C[C@@H](C)O2)CCN1C [ER-890964] | – | – | 1 | – | – | – | – | – | – | % Suppression vs. Vehicle (mouse TLR7; 3 h, 33 mg/kg): 96%; % Suppression vs. Vehicle (mouse TLR7; 19 h, 33 mg/kg): 0%
8 | CCNC(=O)C1CN(c2ccc(C#N)c3ncccc23)CC(C)O1 (stereo not shown) [ER-894550] | 98 | – | 97 | 72 | 97 | 99 | 48 | 71 | 99 | –
9 | CC1CN(c2ccc(C#N)c3ncccc23)CC(C(=O)NC2CCCNC2)O1 (stereo not shown) [ER-897968] | 81 | – | 1 | 3 | 35 | 85 | 0 | 8 | 80 | –
10 | CC1CN(c2ccc(C#N)c3ncccc23)CC(C(=O)NCC2CCCN2)O1 (stereo not shown) [ER-897969] | 0 | – | 7 | 29 | 54 | 71 | 0 | 4 | 29 | –
11 | CC1CN(c2ccc(C#N)c3ncccc23)CC(C(=O)NCC(C)(C)N(C)C)O1 (stereo not shown) [ER-898566] | 100 | 99 | 11 | 73 | 86 | 98 | 0 | 30 | 100 | –
12 | CC1CN(c2ccc(C#N)c3ncccc23)CC(C(=O)NCC2CNCCO2)O1 (stereo not shown) [ER-898694] | 93 | – | 2 | 2 | 36 | 53 | 0 | 0 | 35 | –
13 | CC1CN(c2ccc(C#N)c3ncccc23)CC(C(=O)NC2CCNCC2)O1 (stereo not shown) [ER-898946] | 61 | – | 2 | 2 | 16 | 55 | 28 | 0 | 34 | –
14 | CC1CN(c2ccc(C#N)c3ncccc23)CC(C(=O)N2CC3(CCNC3)C2)O1 (stereo not shown) [ER-899017] | 34 | – | 4 | 0 | 0 | 10 | – | 0 | 0 | –
15 | CNCC1CN(C(=O)[C@H]2CN(c3ccc(C#N)c4ncccc34)C[C@@H](C)O2)C1 [ER-899018] | – | 73 | 9 | – | 12 | – | – | – | – | –
16 | CC1CN(c2ccc(C#N)c3ncccc23)CC(C(=O)NC2CCOCC2)O1 (stereo not shown) [ER-899122] | – | – | 80 | 90 | 100 | – | 15 | 89 | – | % Suppression vs. Vehicle (mouse TLR7; 6 h, 11 mg/kg): 98%; % Suppression vs. Vehicle (mouse TLR7; 13 h, 11 mg/kg): 37%; % Suppression vs. Vehicle (mouse TLR7; 24 h, 11 mg/kg): 0%
17 | CC1CN(c2ccc(C#N)c3ncccc23)CC(C(=O)N2CCC3(CCNCC3)CC2)O1 (stereo not shown) [ER-899193] | – | 43 | 9 | – | 52 | – | – | – | – | –
18 | CC1CN(c2ccc(C#N)c3ncccc23)CC(C(=O)Nc2cnn(C3CCNCC3)c2)O1 (stereo not shown) [ER-899285] | – | 75 | 7 | – | 0 | – | – | – | – | –
19 | C[C@@H]1CN(c2ccc(C#N)c3ncccc23)C[C@H](C(=O)N[C@@H]2CCCN(C)C2)O1 [ER-899337] | – | 99 | 2 | – | 30 | – | – | – | – | –
20 | CC1CN(c2ccc(C#N)c3ncccc23)CC(C(=O)NC2CCCNCC2)O1 (stereo not shown) [ER-899417] | – | 71 | 1 | – | 0 | – | – | – | – | –
21 | CC1CN(c2ccc(C#N)c3ncccc23)CC(C(=O)NC2C3CNCC32)O1 (stereo not shown) [ER-899418] | – | 19 | 5 | – | 10 | – | – | – | – | –
22 | CC1CN(c2ccc(C#N)c3ncccc23)CC(C(=O)NC2CNCC2F)O1 (stereo not shown) [ER-899476] | – | 99 | – | – | 65 | – | – | – | – | IC50 (Human TLR7/8; read-out: Human PBMCs IC50; primary human PBMC assay, TLR7/8 potency; ligand not given): 3 nM
23 | C[C@@H]1CN(c2ccc(C#N)c3ncccc23)C[C@H](C(=O)NC2CCN(CC(N)=O)CC2)O1 [ER-899481] | – | 54 | 8 | – | 5 | – | – | – | – | –
